The values below come from patent US20250282871A1, “PHARMACEUTICAL COMBINATION AND USE THEREOF” (TIANJIN LIPOGEN TECHNOLOGY CO., LTD, priority 2021, published 2025).

For assay [1], the system named is colorectal carcinoma MC38. As to the kind of experiment: Example 7.2.2: MC38 subcutaneous xenograft, PD-L1 inhibitor Durvalumab and 2′,3′-cGAMP. Conditions: intratumor injection, 1 mg/kg each, every other day, 3 times. In kind it is in vivo, mouse. As for the experimental part:
(§1) Tumor cells were cultured and passaged, cells were collected at the logarithmic phase, and formulated into a concentration of (1.0×10^7) per milliliter of cell suspension with 0.1 ml (with a cell number of 1.0×10^6) being injected into the right flank of the mice, the tumor grew to a diameter of about 5 mm within about 10 days, and the model was successfully established, they were randomly divided into 8 groups with 8 mice per group.
(§2) Trend of changes in body weight and tumor volume of mice, survival rate of mice, and inhibitory rate of anatomical tumor weight.
(§3) Drug interaction coefficient: CDI(CI)=AB/A*B. AB is the ratio of the combination group of two drugs to the control group, as calculated based on the anatomical tumor weight. A or B is the ratio of single drug group to control group.
(§4) After successfully establishing a subcutaneous xenograft tumor model of colorectal carcinoma MC38 in mice, they were randomly grouped with 6-8 mice per group and administered once every two days, a total of 3 times.

The subject of assay [2] is colorectal carcinoma MC38. Briefly: Example 3: xenograft tumor model of colorectal carcinoma MC38, RB0005 and different doses of 2′,3′-cGAMP. In kind it is in vivo, mouse. Conditions: single drug i.t.: RB0005 1 mg/kg; 2′,3′-cGAMP 1, 3.16, 10 mg/kg. As for the experimental part:
as §1, §2
After successfully establishing a subcutaneous xenograft tumor model in mice, they were randomly grouped with 8 mice per group and administered once every two days.

The test system of assay [3] is colorectal carcinoma MC38. Briefly: Example 7.2.1: MC38 subcutaneous xenograft, marketed PD-1 inhibitors and 2′,3′-cGAMP. The assay is classed as in vivo, mouse. To be noted: intratumor injection; PD-1 antibody 10 mg/kg, 2′,3′-cGAMP 1 mg/kg; every other day, 3 times. As for the experimental part: as §1, §2, §3, §4
In assay [4] the test system is colorectal carcinoma MC38. As to the kind of experiment: Example 2: humanized PD-1 subcutaneous xenograft tumor model of colorectal carcinoma MC38, RB0004 and 2′,3′-cGAMP. The assay is classed as in vivo, mouse. Conditions: 2′,3′-cGAMP 3 mg/kg i.t.; RB0004 10 mg/kg i.p.; every other day. As for the experimental part:
as §1, §2
After successfully establishing a humanized PD-1 subcutaneous xenograft tumor model of colorectal carcinoma MC38 in mice, they were randomly grouped with 8 mice per group and administered once every two days.

In assay [5] the test system is melanoma B16. Briefly: Example 12: humanized PD-1 subcutaneous xenograft tumor model of melanoma B16. In kind it is in vivo, mouse. Conditions: intratumor injection, RB0004 10 mg/kg, 2′,3′-cGAMP 0.1 mg/kg; for TGI %: day 7. As for the experimental part:
as §1
After successfully establishing a humanized PD-1 subcutaneous xenograft tumor model of melanoma B16 in mice, they were randomly grouped with 6-8 mice per group and administered once every two days, a total of 3 times.

In assay [6] the test system is breast carcinoma 4T1. As to the kind of experiment: Example 11: humanized CD274 cell subcutaneous xenograft tumor model of breast carcinoma 4T1 in BALBc mice. To be noted: intratumor injection, 1 mg/kg each. In kind it is in vivo. As for the experimental part: as §1, §2, §3
After successfully establishing a humanized CD274 cell subcutaneous xenograft tumor model of breast carcinoma 4T1 in BALBc mice, they were randomly grouped with 6-8 mice per group and administered once every two days, a total of 3 times.

In assay [7] the test system is colorectal carcinoma MC38. As to the kind of experiment: Example 9: MC38 xenograft, 2′,3′-cGAMP administered firstly, RB0005 after 48 hours. To be noted: 2′,3′-cGAMP 1 mg/kg i.t. Day 1, 3, 5; RB0005 1 mg/kg i.p. Day 3, 5, 7. In kind it is in vivo, mouse. As for the experimental part:
as §1, §2, §3
(§5) After successfully establishing a humanized PD-1 subcutaneous xenograft tumor model of colorectal carcinoma MC38 in mice, they were randomly grouped with 6-8 mice per group and administered once every two days, a total of 3 times.

Assay [8] concerns colorectal carcinoma MC38. Briefly: Example 6: humanized PD-1 subcutaneous xenograft tumor model of colorectal carcinoma MC38, RB0004 and 2′,3′-cGAMP single dosage form. In kind it is in vivo, mouse. To be noted: intratumor injection; RB0004 10 mg/kg, 2′,3′-cGAMP 1 mg/kg; every other day, 3 times. As for the experimental part: as §1, §2, §3, §5
For assay [9], the system named is lung carcinoma LLC-1. Briefly: Example 13: humanized PD-1 subcutaneous xenograft tumor model of lung carcinoma LLC-1. In kind it is in vivo, mouse. To be noted: intratumor injection; RB0004 10 mg/kg, 2′,3′-cGAMP 0.1 mg/kg; every other day, 3 times. As for the experimental part:
as §1, §3
After successfully establishing a humanized PD-1 subcutaneous xenograft tumor model of lung carcinoma LLC-1 in mice, they were randomly grouped with 6-8 mice per group and administered once every two days, a total of 3 times.

The test system of assay [10] is colorectal carcinoma MC38. As to the kind of experiment: Example 1: subcutaneous xenograft tumor model of colorectal carcinoma MC38 in mice, RB0005 and 2′,3′-cGAMP. The assay is classed as in vivo, mouse. As for the experimental part: C57/BL6JNifdc mouse, female, body weight of 17-22 g, aged 6-8 weeks, SPF grade, purchased from Beijing Vital River Laboratory Animal Technology Co., Ltd. [Experimental Animal Quality Certificate No.: SCXK (Beijing) 2016-0006].
as §1, §2, §3
After successfully establishing a subcutaneous xenograft tumor model of colorectal carcinoma MC38 in mice, it was randomly grouped with 6-8 mice per group. The mice were administered once every two days, with a total of three times followed by observation until 15 days.

Assay [11] relates to colorectal carcinoma MC38. Briefly: Example 5: humanized CD274 cell subcutaneous xenograft tumor model of colorectal carcinoma MC38, routes and dosage forms. Conditions: every other day, 3 times. The assay is classed as in vivo, mouse. As for the experimental part:
as §1, §2, §3
After successfully establishing a humanized CD274 cell subcutaneous xenograft tumor model of colorectal carcinoma MC38 in mice, they were randomly grouped with 6-8 mice per group and administered once every two days, a total of 3 times.

Assay [12] deals with colorectal carcinoma MC38. As to the kind of experiment: Example 7.2.3: MC38 subcutaneous xenograft, PD-L1 inhibitor Tecentriq or RB0005 and 2′,3′-cGAMP. The assay is classed as in vivo, mouse. Conditions: intratumor injection, 1 mg/kg each, every other day, 3 times. As for the experimental part:
as §1, §2, §4

As for `Nc1nc2c(ncn2[C@@H]2O[C@@H]3COP(=O)(O)O[C@H]4[C@@H](O)[C@H](n5cnc6c(N)ncnc65)O[C@@H]4COP(=O)(O)O[C@@H]2[C@@H]3O)c(=O)[nH]1` [2′,3′-cGAMP], the “Tumor Weight” value turned out to be 1.74 g in assay [1]; 0.98 g in [3]; 0.63 g in assay [6] (every other day, 3 times); 1.30 g in assay [7]; 0.84 g in assay [8]; 3.48 g in assay [11] (intraperitoneal injection, 1 mg/kg (each)). The “Tumor Weight” value in assay [11] (intratumor injection, 1 mg/kg each) amounted to 1.84 g; in [12], 0.9 g. Also, the “inhibition of tumor growth” value is recorded as “can inhibit the growth of tumor” in assay [2]; “can inhibit the growth of tumor” in assay [4]; “can significantly inhibit the growth of tumor” in assay [10] (i.t. 1 mg/kg, anatomical tumor weight vs negative control P<0.01, P<0.001). For the same compound, in [5], the “Day 7-Tumor volume (mm^3)” value was determined as 578.8 mm^3. For the same compound, the values for the TGI % in [5], in assay [5] (listed as cGAMP) and in [9] were 59.0%, 59% and 47%, respectively. Besides, the “survival rate at the endpoint of the experiment” value in [6] is given as 66.7%. The “survival rates of mice at the endpoint of the experiment” value in [10] (intratumor injection, 1 mg/kg each drug, every other day, 3 times, death = tumor volume >2000 mm^3) worked out at 75%.

As to “Durvalumab: marketed PD-L1 inhibitor, anti PD-L1 antibody”, in [1], the “IRTW % (tumor weight inhibitory rate)” value is on record as 27.7% and the “Tumor Weight” value was determined as 2.42 g.

On to “Sintilimab: marketed PD-1 monoclonal antibody [reference compound]”, for which, in assay [3], the “IRTW % (tumor weight inhibitory rate)” value is given as 3.9% and the “Tumor Weight” value was 1.47 g.

Turning to Tecentriq: marketed PD-L1 inhibitor, in assay [12], the “IRTW % (tumor weight inhibitory rate)” value was 62.4% and the “Tumor Weight” value is given as 0.7 g.

In the case of “Toripalimab: marketed PD-1 monoclonal antibody; G9 of Example 7.2.1, called TERRE in b443 [reference compound]”, in assay [3], the “IRTW % (tumor weight inhibitory rate)” value was 49.7% and the “Tumor Weight” value amounted to 0.92 g.
